Measurements: ChEMBL document CHEMBL1201862, “PubChem BioAssay data set” (2004)
Values belong to the compound of their own block, whether it stands above or below them. Activity calls are given as the source filed them.

What was measured:
[1] = molecular target: T1, Serine/threonine-protein phosphatase (Candida dubliniensis (strain CD36 / CBS 7987 / NCPF 3949 / NRRLY-17841) (Yeast), UniProt B9W6M3); test: calcineurin pathway inhibitors in yeast reporter, dose response, S. cerevisiae, CDRE-lacZ, luminescence, secondary (AID 2388); type: functional, cell-based;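 further: yeast reporter cells carrying a calcineurin-responsive lacZ construct stimulated with calcium chloride; luminescent beta-galactosidase reporter signal in whole cells rather than isolated phosphatase activity; potency for inhibition where a drop in reporter signal means calcineurin blockade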
T1 sequence (B9W6M3 whole entry): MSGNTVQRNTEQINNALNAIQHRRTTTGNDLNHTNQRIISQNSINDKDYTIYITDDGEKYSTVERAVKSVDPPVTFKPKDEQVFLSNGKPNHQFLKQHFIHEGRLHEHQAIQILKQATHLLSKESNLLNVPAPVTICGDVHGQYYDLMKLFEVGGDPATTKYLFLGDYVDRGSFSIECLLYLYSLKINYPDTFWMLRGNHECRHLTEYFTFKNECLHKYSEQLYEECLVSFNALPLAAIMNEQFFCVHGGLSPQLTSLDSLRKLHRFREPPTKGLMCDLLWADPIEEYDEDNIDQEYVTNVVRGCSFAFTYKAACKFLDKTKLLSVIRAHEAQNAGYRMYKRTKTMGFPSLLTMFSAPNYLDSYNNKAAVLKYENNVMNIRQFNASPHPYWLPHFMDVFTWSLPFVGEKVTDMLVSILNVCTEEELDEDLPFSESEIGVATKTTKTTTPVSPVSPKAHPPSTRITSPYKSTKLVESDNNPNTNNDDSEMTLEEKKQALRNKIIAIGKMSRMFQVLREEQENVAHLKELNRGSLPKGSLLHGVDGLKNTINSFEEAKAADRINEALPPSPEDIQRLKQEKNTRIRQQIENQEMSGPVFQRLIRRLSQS

[2] = Shn3 3'UTR reporter inhibitors, dose response, cell-based, Clone20 osteoblasts, firefly luciferase, cherry-picked (AID 624132); type: functional;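 further: firefly luciferase luminescence from reporter carrying the Shn3 3'UTR in osteoblasts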
[3] = molecular target: T2, Sentrin-specific protease 6 (Homo sapiens, UniProt Q9GZR1); type: functional;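 further: Luminescence-based dose-response confirmatory assay of SENP6 inhibition, following up an ultra-high-throughput screen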
T2 sequence (Q9GZR1 whole entry): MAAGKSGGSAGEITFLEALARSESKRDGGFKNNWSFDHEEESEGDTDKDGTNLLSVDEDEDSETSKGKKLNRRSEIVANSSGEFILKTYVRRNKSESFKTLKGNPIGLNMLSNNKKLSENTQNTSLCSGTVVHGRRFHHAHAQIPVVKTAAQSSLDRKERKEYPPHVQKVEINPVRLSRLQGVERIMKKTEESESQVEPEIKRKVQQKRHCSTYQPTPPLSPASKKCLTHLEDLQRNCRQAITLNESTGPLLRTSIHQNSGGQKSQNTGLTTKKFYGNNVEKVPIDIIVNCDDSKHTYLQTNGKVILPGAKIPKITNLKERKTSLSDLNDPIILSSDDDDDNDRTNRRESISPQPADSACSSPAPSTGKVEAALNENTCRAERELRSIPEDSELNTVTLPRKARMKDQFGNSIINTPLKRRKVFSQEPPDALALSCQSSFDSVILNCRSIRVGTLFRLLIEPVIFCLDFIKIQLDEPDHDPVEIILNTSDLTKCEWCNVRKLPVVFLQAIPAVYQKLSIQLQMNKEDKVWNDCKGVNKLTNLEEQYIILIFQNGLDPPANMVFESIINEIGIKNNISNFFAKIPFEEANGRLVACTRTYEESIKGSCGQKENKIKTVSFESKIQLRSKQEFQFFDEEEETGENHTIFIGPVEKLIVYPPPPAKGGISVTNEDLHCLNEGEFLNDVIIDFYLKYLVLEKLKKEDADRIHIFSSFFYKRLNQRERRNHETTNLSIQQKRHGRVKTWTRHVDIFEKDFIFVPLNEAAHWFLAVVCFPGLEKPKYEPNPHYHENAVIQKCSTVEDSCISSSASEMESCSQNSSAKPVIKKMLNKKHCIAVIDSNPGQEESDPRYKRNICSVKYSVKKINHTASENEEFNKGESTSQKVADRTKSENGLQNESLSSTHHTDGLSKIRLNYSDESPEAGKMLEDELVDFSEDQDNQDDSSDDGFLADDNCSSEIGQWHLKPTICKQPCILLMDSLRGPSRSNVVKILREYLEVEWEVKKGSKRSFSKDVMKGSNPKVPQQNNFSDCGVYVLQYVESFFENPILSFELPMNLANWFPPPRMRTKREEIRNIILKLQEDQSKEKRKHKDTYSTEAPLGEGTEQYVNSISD

SMILES: CC(C)CC(=O)NC(c1cccs1)c1ccc2cccnc2c1O (stereo not drawn)
- EC50 [1]: > 180 µM (inactive)

SMILES: OC(CNCCC1C=Nc2ccccc21)Cn1c2ccc(Cl)cc2c2cc(Cl)ccc21 (stereo not drawn)
- AC50 [2]: 5.11 µM (active)

- IC50 [3]: 0.805 µM (active)
SMILES: COc1ccc(C(=O)c2nccc3cc(OC)c(OC)cc23)cc1OC
